The values below come from the SangsterLogP compilation.

Each structure is given as a SMILES string.

In general, logP refers to a log measure of how a compound divides between an organic and an aqueous phase. A high value points to higher lipophilicity. In turn, `O=C(NC(=O)c1c(F)cccc1F)Nc1ccc(Cl)c(Oc2ncc(C(F)(F)F)cc2Cl)c1` came in with a logP of 5.1.

Turning to `COP(=O)(OC)SCn1c(=O)oc2cc(Cl)cnc21`, the logP was 1.05.

As to `CCc1cccc(C)c1N(COC(C)C)C(=O)CCl`, the lipophilicity (logP) came out at 3.5.

For `Clc1ccc(CS/C(Cn2cncn2)=N\c2ccc(Cl)cc2Cl)cc1`, the logP is 4.94.

`O=C(NC(=O)c1c(F)cccc1F)Nc1ccc(OC(F)(F)C(F)OC(F)(F)F)c(Cl)c1` (centres undefined) had a logP of 5.27.

In the case of `CCOP(=O)(SC(C)CC)N1CCSC1=O` (centres undefined), the logP is 1.68.

`CN(C)S(=O)(=O)N(SC(F)(Cl)Cl)c1ccccc1`: the log partition coefficient (logP) was 3.7.

`Cc1cccc(C)c1N(C(=O)CCl)C1CCOC1=O` (centres undefined): the logP is 1.39.

Compound `Fc1cccc(F)c1-c1nnc(-c2ccccc2Cl)nn1` came in with a logP of 3.3.
